From PMC12635456, “In Vivo Inhibition of Dipeptidyl Peptidase 4 and Neprilysin Activity Enables Measurement of GLP-1 Secretion in Male Rats” (Journal of the Endocrine Society, 2025)
Where two headings read alike, the source gives them in different places.

How the values were obtained:
GLP-1 secretion = test: Oral glucose challenge without inhibitor pretreatment (GLP-1 by RIA and ELISAs); details: oral glucose 2 g/kg, no inhibitors
Description: In these experiments it was possible to collect relatively large blood samples (∼500 µL), allowing measurements with a single site RIA directed at the C-terminus of the molecule. The samples were collected at time point 0, 15, 30, and 60 minutes after glucose challenge and treated as already described.
Net area under the curve (nAUC) was calculated using the trapezoid rule; baseline was set to the first data point and peaks above and below the baseline were considered. P < .05 was considered significant. Data are shown as mean ± SEM.

[1] = cited from earlier work
Description: Glucagon-like peptide-1 (GLP-1), secreted from enteroendocrine cells in the gut, enhances glucose-stimulated insulin secretion and reduces appetite.

SMILES | Increase in GLP-1 concentration 15 minutes following glucose, C-terminal RIA (GLP-1 secretion) [pmol/L] | Increase in GLP-1 concentration 15 minutes following glucose, Mercodia total ELISA (GLP-1 secretion) | Total GLP-1 plasma concentration 15 minutes after glucose, RIA (GLP-1 secretion; in-house C-terminal RIA 89390, mean ± SEM, n = 5-6, P < .02 vs baseline) [pmol/L] | Intact GLP-1 plasma concentration 15 minutes after glucose, Alpco ELISA (GLP-1 secretion; mean ± SEM, n = 5-6, P < .008 vs baseline) [pmol/L] | Total GLP-1 plasma concentration 15 minutes after glucose, Mercodia ELISA (GLP-1 secretion; mean ± SEM, n = 5-6, P < .02 vs baseline) [pmol/L] | Half-life in the circulation ([1]; humans) | Half-life in the circulation ([1]; mice) | Half-life in the circulation ([1]; rats)
OC[C@H]1OC(O)[C@H](O)[C@@H](O)[C@@H]1O (some centres unmarked) [glucose] | ~15 | around 5 pmol/L | 43.1 ± 3.7 | 0.8 ± 0.07 | 10.5 ± 1.8 | – | – | –
CC[C@H](C)[C@H](NC(=O)[C@H](Cc1ccccc1)NC(=O)[C@H](CCC(=O)O)NC(=O)[C@H](CCCCN)NC(=O)[C@H](C)NC(=O)[C@H](C)NC(=O)[C@H](CCC(N)=O)NC(=O)CNC(=O)[C@H](CCC(=O)O)NC(=O)[C@H](CC(C)C)NC(=O)[C@H](Cc1ccc(O)cc1)NC(=O)[C@H](CO)NC(=O)[C@H](CO)NC(=O)[C@@H](NC(=O)[C@H](CC(=O)O)NC(=O)[C@H](CO)NC(=O)[C@@H](NC(=O)[C@H](Cc1ccccc1)NC(=O)[C@@H](NC(=O)CNC(=O)[C@H](CCC(=O)O)NC(=O)[C@H](C)NC(=O)[C@@H](N)Cc1c[nH]cn1)[C@@H](C)O)[C@@H](C)O)C(C)C)C(=O)N[C@@H](C)C(=O)N[C@@H](Cc1c[nH]c2ccccc12)C(=O)N[C@@H](CC(C)C)C(=O)N[C@H](C(=O)N[C@@H](CCCCN)C(=O)NCC(=O)N[C@@H](CCCNC(=N)N)C(N)=O)C(C)C [GLP-1(7-36)NH2] | – | – | – | – | – | a few minutes | a few minutes | a few minutes
